In patent US20250235455A1, “AQUEOUS TICAGRELOR SOLUTIONS, METHOD OF MANUFACTURING AND USES” (HYLORIS DEVELOPMENTS SA, priority 2022, published 2025):

Test: Stability of ticagrelor 6 mg/ml in HPβCD 40% w/w, buffer pH 4.5, 5.5, 6.5, stored at 40° C. and 75% RH (HPLC related substances)
Assay type: physicochemical
Protocol: HPβCD was dissolved in a buffer solution of pH 4.5, 5.5 or 6.5 prepared separately in water. […] The ticagrelor in buffer solution was filtered through a 0.22 micron filtered and filled in USP Type I glass vials. The vials were stoppered and stored. All precautions were taken during manufacturing, such as N2 purging and avoiding direct exposure to light. The vials were stored at 40° C. and 75% Relative Humidity (RH).
To determine the stability of the formulations, batches were evaluated using a related substance method on HPLC.
A Gradient HPLC method was used to analyze impurities in formulations using a YMC-Pack Pro C18 column (100×4.6 mm, S-3 μm 12 nm). Good separation was obtained for all the impurities. • Amine impurity: (1S,2S,3R,5S)-3-(7-amino-5-(propylsulfanyl)-3H-[1,2,3]triazolo[4,5-d]pyrimidin-3-yl)-5-(2-hydroxyethoxy)cyclopentane-1,2-diol. This is a process related degradant impurity. • Regiomer impurity: (1S, 2S, 3R, 5S)-3-((3-((1R,2S)-2-(3,4-Difluorophenyl)cyclopropyl)-5-(propylsulfanyl)-3H-[1,2,3]triazolo[4,5-d]pyrimidin-7-yl)amino)-5-(2-hydroxyethoxy)cyclopentane-1,2-diol. This is a process related degradant impurity. • Acetal impurity: 2-[[(3aR,4S,6S,6aS)-6-[7-[1R,2S)-2-(3,4-difluorophenyl)-cyclopropyl]amino]-5-(propylsulfanyl)-3H-[1,2,3]triazolo-[4,5-d]pyrimidin-3-yl]-2,2-dimethyltetrahydro-2H-3aHcyclopenta[d][1,3]dioxol-4-yl]oxy]ethan-1-ol.

[1] = pH 4.5, T = 2 weeks, 40° C./75% RH
[2] = pH 4.5, T = 4 weeks, 40° C./75% RH
[3] = pH 5.5, T = 2 weeks, 40° C./75% RH
[4] = pH 5.5, T = 4 weeks, 40° C./75% RH

With CCCSc1nc(N[C@@H]2C[C@H]2c2ccc(F)c(F)c2)c2nnn([C@@H]3C[C@H](OCCO)[C@@H](O)[C@H]3O)c2n1 [Ticagrelor, (1S,2S,3R,5S)-3-{7-[(1R,2S)-2-(3,4-difluorophenyl)cyclopropylamino]5-(propylthio)-3H-(1,2,3)triazolo (4,5-D)pyrimidin-3-yl}-5-(2 hydroxyethoxy)cyclopentane-1,2-diol] the Regiomer impurity level (4 weeks 40° C. and 75% RH, specification limit 0.3%) was roughly 0.3%, the Acetal impurity content (pH 4.5, T = 0) was 0.05% and the Amine impurity content (pH 4.5, T = 0) was 0.05%. For the same molecule, the “Content of unnamed impurity, relative retention time 1.52” value (from here on “Content … relative retention time 1.52”) (pH 4.5, T = 0) was 0.03%, the “Oxidative impurity 1 content” value (pH 4.5, T = 0) was 0.00% and the “Oxidative impurity 2 content” value (pH 4.5, T = 0) was 0.00%. For the same molecule, the Regiomer impurity content (pH 4.5, T = 0) was 0.00%, the “Sum Impurities >0.05” value (pH 4.5, T = 0) was 0.22% and the “Total Impurities” value (pH 4.5, T = 0) was 0.36%. For the same molecule, the Triol impurity content (pH 4.5, T = 0) was 0.05%, the Acetal impurity content [1] was 0.06% and the Amine impurity content [1] was 0.05%. For the same molecule, the “Content … relative retention time 1.52” value [1] was 0.04%, the “Oxidative impurity 1 content” value [1] was 0.00% and the “Oxidative impurity 2 content” value [1] was 0.00%. For the same molecule, the Regiomer impurity content [1] was 0.00%, the “Sum Impurities >0.05” value [1] was 0.23% and the “Total Impurities” value [1] was 0.40%. The Triol impurity content [1] was 0.05%, the Acetal impurity content [2] was 0.05% and the Amine impurity content [2] was 0.05%. The “Content … relative retention time 1.52” value [2] was 0.03%, the “Oxidative impurity 1 content” value [2] was 0.01% and the “Oxidative impurity 2 content” value [2] was 0.02%. For the same molecule, the Regiomer impurity content [2] was 0.42%, the “Sum Impurities >0.05” value [2] was 0.63% and the “Total Impurities” value [2] was 0.80%. The Triol impurity content [2] was 0.05%, the Acetal impurity content (pH 5.5, T = 0) was 0.05% and the Amine impurity content (pH 5.5, T = 0) was 0.04%. The “Content … relative retention time 1.52” value (pH 5.5, T = 0) was 0.02%, the “Oxidative impurity 1 content” value (pH 5.5, T = 0) was 0.00% and the “Oxidative impurity 2 content” value (pH 5.5, T = 0) was 0.00%. The Regiomer impurity content (pH 5.5, T = 0) was 0.00%, the “Sum Impurities >0.05” value (pH 5.5, T = 0) was 0.16% and the “Total Impurities” value (pH 5.5, T = 0) was 0.33%. For the same molecule, the Triol impurity content (pH 5.5, T = 0) was 0.05%, the Acetal impurity content [3] was 0.05% and the Amine impurity content [3] was 0.05%. The “Content … relative retention time 1.52” value [3] was 0.03%, the “Oxidative impurity 1 content” value [3] was 0.00% and the “Oxidative impurity 2 content” value [3] was 0.00%. The Regiomer impurity content [3] was 0.00%, the “Sum Impurities >0.05” value [3] was 0.21% and the “Total Impurities” value [3] was 0.36%. The Triol impurity content [3] was 0.05%, the Acetal impurity content [4] was 0.05% and the Amine impurity content [4] was 0.04%. For the same molecule, the “Content … relative retention time 1.52” value [4] was 0.02%, the “Oxidative impurity 1 content” value [4] was 0.01% and the “Oxidative impurity 2 content” value [4] was 0.02%. For the same molecule, the Regiomer impurity content [4] was 0.30%, the “Sum Impurities >0.05” value [4] was 0.45% and the “Total Impurities” value [4] was 0.65%. The Triol impurity content [4] was 0.05%, the Acetal impurity content (pH 6.5, T = 0) was 0.06% and the Amine impurity content (pH 6.5, T = 0) was 0.05%. For the same molecule, the “Content … relative retention time 1.52” value (pH 6.5, T = 0) was 0.03% and the “Oxidative impurity 1 content” value (pH 6.5, T = 0) was 0.00%.
